Test results as given in patent publication US20240199608A1 (Eli Lilly and Company, priority 2022, published 2024).

What follows are compounds tested against T1, Human AhR (Homo sapiens, UniProt P35869) (assay: hAHR Nuclear Translocation Assay). Settings: AhR-EGFP nuclear translocation in Jump-In T-REx HEK293 cells, 45 minutes incubation; class symbols; read-out: Rel EC50.
T1 construct: expressed in transfected cells
T1 sequence (P35869 11-848): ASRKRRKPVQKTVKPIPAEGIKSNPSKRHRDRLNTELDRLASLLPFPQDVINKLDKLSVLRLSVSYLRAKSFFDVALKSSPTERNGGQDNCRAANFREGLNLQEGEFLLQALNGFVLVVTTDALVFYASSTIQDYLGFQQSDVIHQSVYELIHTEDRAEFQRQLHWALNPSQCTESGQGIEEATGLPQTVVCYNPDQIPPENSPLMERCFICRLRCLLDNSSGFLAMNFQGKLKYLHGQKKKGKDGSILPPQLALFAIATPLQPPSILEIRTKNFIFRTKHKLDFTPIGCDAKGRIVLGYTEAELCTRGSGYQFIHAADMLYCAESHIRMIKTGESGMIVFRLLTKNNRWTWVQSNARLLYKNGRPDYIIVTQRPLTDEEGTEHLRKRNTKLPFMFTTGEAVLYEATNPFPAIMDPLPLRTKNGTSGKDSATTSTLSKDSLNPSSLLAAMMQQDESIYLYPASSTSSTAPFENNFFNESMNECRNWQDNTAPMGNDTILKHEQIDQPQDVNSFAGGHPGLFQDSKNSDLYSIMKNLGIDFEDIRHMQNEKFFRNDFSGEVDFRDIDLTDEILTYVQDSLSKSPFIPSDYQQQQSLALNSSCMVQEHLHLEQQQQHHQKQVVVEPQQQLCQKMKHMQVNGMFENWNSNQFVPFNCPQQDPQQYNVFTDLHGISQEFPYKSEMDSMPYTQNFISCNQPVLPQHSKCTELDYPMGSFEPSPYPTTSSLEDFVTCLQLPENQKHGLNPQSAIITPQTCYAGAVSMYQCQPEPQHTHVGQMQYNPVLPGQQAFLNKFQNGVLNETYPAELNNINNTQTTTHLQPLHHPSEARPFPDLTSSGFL
Type: cell-based
Source text: The purpose of this assay is to measure the ability of compounds to bind to, activate, and induce the translocation of AhR into the nucleus of a cell for transcription. Stable cell lines were established using Jump-InTM T-RExTM HEK293 Retargeting Kit (Life Technologies). Human AhR cDNA was cloned into the pJTI R4 CMV-TO EGFP vector. The EGFP was cloned to the C-terminal of AHR to form AhR-EGFP chimera. The pJTI R4 CMV-TO AhR-EGFP vector was transfected using FuGENE® HD into Jump-InTM T-RExTM HEK293 cells. Transfected cells were selected using 2.5 mg/ml G418 for 10 to 14 days, then expanded, harvested, and suspended in freeze media (FBS with 8% DMSO) at 2×10^7 cells/ml, and aliquots were stored in liquid nitrogen. One day before the assay date, cells were thawed and resuspended in DMEM with 5% FBS in the presence of 1 μg/ml Doxycycline and plated into ploy-L-Lysine coated […]-384 ULTRA Microplates (Perkin Elmer) at 12,000 to 15,000 cells per well and incubated at 37° C. and 5% CO2 overnight. On the assay date, compound was serially diluted (1:2) into 384-well nunc plates with DMSO using acoustic dispensing (ECHO®). The dose response was a 20-point curve. […] The culture media was damped and 25 μl of DMEM plus 0.1% BSA was added, then 25 μL of compound in DMEM plus 0.1% BSA was added into cell plates. Cells were incubated compounds at 37° C. and 5% CO2 for 45 minutes. The final DMSO concentration was 0.2%. The media was damped after 45 minutes incubation. The cells were fixed with 40 μl of cold MeOH (-20° C.) for 20 minutes. The MeOH was damped and 50 μL of DPBS containing 1 μg/mL Hochst was added into the cell plates. The intensity of EGFP was quantitated by using Opera PHENIX® or OPERETTA® high content image system (Perkin Elmer) with 20× Water Objective and five field per well. The ratio of EGFP fluorescent intensity in nuclear over cytosol was analyzed using a 4-parameter nonlinear logistic equation to determine the potency of AhR agonists.

EC50 [nM] | SMILES
10 to 50 | CC1CCc2c1cc(C(=O)Nc1ccn(C)n1)c1nncn21 (single isomer, unassigned) [Example 63, 6-Methyl-N-(1-methyl-1H-pyrazol-3-yl)-7,8-dihydro-6H-cyclopenta[e][1,2,4] triazolo[4,3-a]pyridine-4-carboxamide]
1 to 10 | O=C(Nc1ncc(F)cn1)c1cc2c(n3cnnc13)CCC2C1CCC1 (single isomer, unassigned) [Example 64, 6-Cyclobutyl-N-(5-fluoropyrimidin-2-yl)-7,8-dihydro-6H-cyclopenta[e][1,2,4] triazolo[4,3-a]pyridine-4-carboxamide]
1 to 10 | O=C(Nc1ncc(F)cn1)c1cc2c(n3cnnc13)CCC2C1CCC1 (single isomer, unassigned) [Example 65, 6-Cyclobutyl-N-(5-fluoropyrimidin-2-yl)-7,8-dihydro-6H-cyclopenta[e][1,2,4] triazolo[4,3-a]pyridine-4-carboxamide]
1 to 10 | O=C(Nc1ncc(F)cn1)c1cc2c(n3cnnc13)CCC2C1CC1 (single isomer, unassigned) [Example 66, 6-Cyclopropyl-N-(5-fluoropyrimidin-2-yl)-7,8-dihydro-6H-cyclopenta[e][1,2,4] triazolo[4,3-a]pyridine-4-carboxamide]
1 to 10 | O=C(Nc1ncc(F)cn1)c1cc2c(n3cnnc13)CCC2C1CC1 (single isomer, unassigned) [Example 67, 6-Cyclopropyl-N-(5-fluoropyrimidin-2-yl)-7,8-dihydro-6H-cyclopenta[e][1,2,4] triazolo[4,3-a]pyridine-4-carboxamide]
10 to 50 | CCCC1CCc2c1cc(C(=O)Nc1ncc(F)cn1)c1nncn21 (single isomer, unassigned) [Example 68, N-(5-Fluoropyrimidin-2-yl)-6-propyl-7,8-dihydro-6H-cyclopenta[e][1,2,4] triazolo[4,3-a]pyridine-4-carboxamide]

Same assay, conditions: AhR-EGFP nuclear translocation in Jump-In T-REx HEK293 cells, 45 minutes incubation; numeric values; read-out: Rel EC50

EC50 [nM] | SMILES
3.1 | O=C(Nc1ncc(F)cn1)c1cc2ccccc2n2cnnc12 [Example 1, N-(5-Fluoropyrimidin-2-yl)-[1,2,4]triazolo[4,3-a]quinoline-4-carboxamide]
0.585 | O=C(Nc1ncc(F)cn1)c1cc2ccccc2n2ccnc12 [Example 2, N-(5-Fluoropyrimidin-2-yl)imidazo[1,2-a]quinoline-4-carboxamide]
5.79 | C[C@H]1CCc2c1cc(C(=O)Nc1ncc(F)cn1)c1nncn21 [Example 5, (S)-N-(5-Fluoropyrimidin-2-yl)-6-methyl-7,8-dihydro-6H-cyclopenta[e][1,2,4]triazolo [4,3-a]pyridine-4-carboxamide]
5.74 | C[C@@H]1CCc2c1cc(C(=O)Nc1ncc(F)cn1)c1nncn21 [Example 6, (R)-N-(5-Fluoropyrimidin-2-yl)-6-methyl-7,8-dihydro-6H-cyclopenta[e][1,2,4]triazolo [4,3-a]pyridine-4-carboxamide]
